{"source": "patent US20250320224A1", "about": "(DOMAIN THERAPEUTICS, priority 2022, published 2025)", "note": "Counter-ions that a name gives are not always drawn.", "data": [{"molecular_target": "T1, human PAR-2 (hPAR-2) receptor (Homo sapiens, UniProt P55085)", "T1 construct": "expressed in HEK-293 cells in an endogenous manner; endogenous in cells; host or cells: HEK-293", "T1 sequence (P55085 26-397)": "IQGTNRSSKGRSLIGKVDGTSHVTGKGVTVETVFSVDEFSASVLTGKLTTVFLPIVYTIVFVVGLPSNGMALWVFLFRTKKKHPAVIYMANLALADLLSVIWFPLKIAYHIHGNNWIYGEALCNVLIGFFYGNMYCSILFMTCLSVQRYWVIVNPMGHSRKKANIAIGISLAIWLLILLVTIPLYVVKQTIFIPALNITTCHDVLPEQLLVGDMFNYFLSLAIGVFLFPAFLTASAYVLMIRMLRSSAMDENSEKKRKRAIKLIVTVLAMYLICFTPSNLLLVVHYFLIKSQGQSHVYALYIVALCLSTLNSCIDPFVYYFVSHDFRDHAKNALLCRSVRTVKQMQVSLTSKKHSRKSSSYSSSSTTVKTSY", "experiment": "In vitro human PAR-2 functional antagonist activity using calcium assays", "type": "cell-based", "details": "hPAR-2 endogenously expressed in HEK-293 cells; stimulated by 2-Furoyl-LIGRLO-NH2 peptide; Fluo4AM intracellular calcium, FLIPR Tetra", "description": "Example 283: In Vitro Human PAR-2 Functional Antagonist Activity Using Calcium Assays\nExamples of the present invention were tested successively for their agonist and antagonist activities on human PAR-2 (hPAR-2) receptor expressed in HEK-293 cells in an endogenous manner. Compounds exert agonist activity if, by themselves in absence of the 2-Furoyl-LIGRLO-NH2 peptide (selective hPAR-2 agonist), they activate PAR-2; they exert antagonist activity if they decrease the action of the 2-Furoyl-LIGRLO-NH2 peptide on the receptor. The assay used to determine compound activity is based on calcium measurement.\nCell Culture: HEK-293 cells were maintained in Dulbecco's Modified Eagle's Medium supplemented with 10% Foetal Calf Serum, 1% Penicillin/Streptomycin at 37° C./5% CO2. Flasks for tests (F75) are seeded with 6e+06 cells 24 h before the experiment at 37° C./5% CO2.\nCalcium assay: Receptor activity was detected by changes in intracellular calcium measured using the fluorescent Ca^2+ sensitive dye, Fluo4AM (Molecular Probes).\nThe day of the assay, medium was replaced by assay buffer (HBSS 1× (Gibco 14175-053), Hepes 20 mM, MgSO4-7H2O 1 mM, Na2CO3 3.3 mM, CaCl2—2H2O 2.6 mM, 0.5% bovine serum albumin (BSA), Probenecid 2.5 mM, 0.1 mg/mL Pluronic Acid) and complemented with 1 μM Fluo4AM and cells were incubated during 1:30 h at 37° C.\nCells were then detached, resuspended in assay buffer and seeded in 384 wells, transparent-flat bottom black walled plates (2e+04 cells per well). Plates were incubated at +22° C. for 20 min. Compounds stock solutions were prepared in 100% DMSO and dilutions in test buffer were carried out in polypropylene plates with a digital dispenser (D300e, Tecan). Compounds were added to the cells and intracellular Ca^2+ measurements were collected at the same time on FLIPR Tetra® (Molecular Devices) with specific filters (Exc: 470-495 nm/Em: 515-575 nm).\nAgonist and antagonist activities of compounds were consecutively evaluated on the same cell plate. Agonist activity was first measured after 10 min incubation with the compound alone. Then, cells were stimulated by an […] of the 2-Furoyl-LIGRLO-NH2 peptide and fluorescence was recorded for an additional 5 min. EC50 of the 2-Furoyl-LIGRLO-NH2 peptide was the concentration giving 80% of the maximal 2-Furoyl-LIGRLO-NH2 response. Agonist activities are evaluated in comparison to basal signals evoked by assay buffer or maximal 2-Furoyl-LIGRLO-NH2 response. […] Antagonist activities are evaluated in comparison to basal signals evoked by assay buffer or EC50 of 2-Furoyl-LIGRLO-NH2 alone.", "units": {"IC50": "nM"}, "values": [{"smiles": "O=C1NC(=O)C2(CCN(C(=O)c3ccc4c(n3)C3(CCCC3)CN4c3ccc(Cl)c(F)c3)CC2)N1", "note": "[Example 4, 8-(1′-(4-chloro-3-fluorophenyl)-1′,2′-dihydrospiro[cyclopentane-1,3′-pyrrolo[3,2-b]pyridine]-5′-carbonyl)-1,3,8-triazaspiro[4.5]decane-2,4-dione]", "IC50": "< 500"}, {"smiles": "Cc1nc(N2CCN(C(=O)c3ccc4c(n3)C(C)(C)CN4c3ccc(Cl)c(F)c3)C(C)(C)C2)sc1C(=O)O", "note": "[Example 69, 2-(4-(1-(4-chloro-3-fluorophenyl)-3,3-dimethyl-2,3-dihydro-1H-pyrrolo[3,2-b]pyridine-5-carbonyl)-3,3-dimethylpiperazin-1-yl)-4-methylthiazole-5-carboxylic acid]", "IC50": "< 500"}, {"smiles": "CCC1(C)CN(c2ccc(Cl)c(F)c2)c2ccc(C(=O)N3CCNC(=O)C3(C)C)nc21", "note": "(centres unmarked) [Example 53, 4-(1-(4-chloro-3-fluorophenyl)-3-ethyl-3-methyl-2,3-dihydro-1H-pyrrolo[3,2-b]pyridine-5-carbonyl)-3,3-dimethylpiperazin-2-one]", "IC50": "< 500"}, {"smiles": "COc1ncc(N2CCN(C(=O)c3ccc4c(n3)C(C)(C)CN4c3ccc(Cl)c(F)c3)C(C)(C)C2)cc1C(=O)O", "note": "[Example 142, 5-(4-(1-(4-chloro-3-fluorophenyl)-3,3-dimethyl-2,3-dihydro-1H-pyrrolo[3,2-b]pyridine-5-carbonyl)-3,3-dimethylpiperazin-1-yl)-2-methoxynicotinic acid]", "IC50": "< 500"}, {"smiles": "CC(C)(C)OC(=O)N1CCN(C(=O)c2ccc3c(n2)C(C)(C)CN3c2ccc(Cl)c(F)c2)C(C)(C)C1", "note": "[Example 21, tert-butyl 4-(1-(4-chloro-3-fluorophenyl)-3,3-dimethyl-2,3-dihydro-1H-pyrrolo[3,2-b]pyridine-5-carbonyl)-3,3-dimethylpiperazine-1-carboxylate]", "IC50": "< 500"}, {"smiles": "CC1(C)CC2(CN(c3ccc(Cl)c(F)c3)c3ncc(C(=O)N4CCN(C(=O)CCCCCCC(=O)O)CC4(C)C)nc32)C1", "note": "[Example 260, 8-(4-(5′-(4-chloro-3-fluorophenyl)-3,3-dimethyl-5′,6′-dihydrospiro[cyclobutane-1,7′-pyrrolo[2,3-b]pyrazine]-2′-carbonyl)-3,3-dimethylpiperazin-1-yl)-8-oxooctanoic acid]", "IC50": "< 500"}, {"smiles": "CC1(C)CCN(c2ccc(Cl)c(F)c2)c2ccc(C(=O)N3CCN(c4ccc(CC(=O)O)cn4)CC3(C)C)nc21", "note": "[Example 177, 2-(6-(4-(5-(4-chloro-3-fluorophenyl)-8,8-dimethyl-5,6,7,8-tetrahydro-1,5-naphthyridine-2-carbonyl)-3,3-dimethylpiperazin-1-yl)pyridin-3-yl)acetic acid]", "IC50": "< 500"}, {"smiles": "CO[C@H]1CN(C(=O)c2ccc3c(n2)C(C)(C)CN3c2ccc(Cl)c(F)c2)CC[C@@H]1CC(=O)O", "note": "[Example 94, 2-((3R,4R)-1-(1-(4-chloro-3-fluorophenyl)-3,3-dimethyl-2,3-dihydro-1H-pyrrolo[3,2-b]pyridine-5-carbonyl)-3-methoxypiperidin-4-yl)acetic acid]", "IC50": "500 to 10000"}, {"smiles": "Cc1cc(N2CCN(C(=O)c3cnc4c(n3)C(C)(C)CN4CCc3ccc(F)cc3)C(C)(C)C2)nc(C)c1C(=O)O", "note": "[Example 213]", "IC50": "500 to 10000"}, {"smiles": "CC1(C)C(=O)NCCN1C(=O)c1ccc2c(n1)[C@]1(C)CCO[C@@H]1N2c1ccc(Cl)c(F)c1", "note": "(racemic) [Example 61, cis-4-(8-(4-chloro-3-fluorophenyl)-3a-methyl-3,3a,8,8a-tetrahydro-2H-furo[3′,2′:4,5]pyrrolo[3,2-b]pyridine-5-carbonyl)-3,3-dimethylpiperazin-2-one]", "IC50": "< 500"}, {"smiles": "CC1(C)CN(c2ccc(Cl)c(F)c2)c2ccc(C(=O)N3CCN(c4nc(C(F)(F)F)c(C(=O)O)s4)CC3(C)C)nc21", "note": "[Example 79, 2-(4-(1-(4-chloro-3-fluorophenyl)-3,3-dimethyl-2,3-dihydro-1H-pyrrolo[3,2-b]pyridine-5-carbonyl)-3,3-dimethylpiperazin-1-yl)-4-(trifluoromethyl)thiazole-5-carboxylic acid]", "IC50": "< 500"}, {"smiles": "CC1(C)CN(c2ccc(Cl)c(F)c2)c2ccc(C(=O)N3CCC4(CCNC4=O)CC3)nc21", "note": "[Example 75, 8-(1-(4-chloro-3-fluorophenyl)-3,3-dimethyl-2,3-dihydro-1H-pyrrolo[3,2-b]pyridine-5-carbonyl)-2,8-diazaspiro[4.5]decan-1-one]", "IC50": "500 to 10000"}, {"smiles": "Cc1cc(N2CCN(C(=O)c3ccc4c(n3)C3(C=C(F)C3)CN4c3ccc(Cl)c(F)c3)C(C)(C)C2)nc(C)c1C(=O)O", "note": "(centres unmarked) [Example 90, 6-(4-(1′-(4-chloro-3-fluorophenyl)-3-fluoro-1′,2′-dihydrospiro[cyclobutane-1,3′-pyrrolo[3,2-b]pyridin]-2-en-5′-carbonyl)-3,3-dimethylpiperazin-1-yl)-2,4-dimethylnicotinic acid]", "IC50": "< 500"}, {"smiles": "Cc1cc(N2CCN(C(=O)c3cnc4c(n3)C(C)(C)CN4c3ccc(Cl)c(Cl)c3)C(C)(C)C2)nc(C)c1C(=O)O", "note": "[Example 249, 6-(4-(5-(3,4-dichlorophenyl)-7,7-dimethyl-6,7-dihydro-5H-pyrrolo[2,3-b]pyrazine-2-carbonyl)-3,3-dimethylpiperazin-1-yl)-2,4-dimethylnicotinic acid]", "IC50": "< 500"}, {"smiles": "Cc1cc(N2CCN(C(=O)c3ccc4c(n3)C3(CCCC3)CN4c3ccc(F)c(F)c3)C(C)(C)C2)nc(C)c1C(=O)O", "note": "[Example 113, 6-(4-(1′-(3,4-difluorophenyl)-1′,2′-dihydrospiro[cyclopentane-1,3′-pyrrolo[3,2-b]pyridine]-5′-carbonyl)-3,3-dimethylpiperazin-1-yl)-2,4-dimethylnicotinic acid]", "IC50": "< 500"}, {"smiles": "CC1(C)CN(c2cc(F)c(Cl)c(F)c2)c2ncc(C(=O)N3CCN(c4ccc(CC(=O)O)cn4)CC3(C)C)nc21", "note": "[Example 241, 2-(6-(4-(5-(4-chloro-3,5-difluorophenyl)-7,7-dimethyl-6,7-dihydro-5H-pyrrolo[2,3-b]pyrazine-2-carbonyl)-3,3-dimethylpiperazin-1-yl)pyridin-3-yl)acetic acid]", "IC50": "< 500"}, {"smiles": "Cc1ccc(N2CC(C)(C)c3nc(C(=O)N4CCN(c5cc(C)c(C(=O)O)c(C)n5)CC4(C)C)cnc32)cc1Cl", "note": "[Example 189, 6-(4-(5-(3-chloro-4-methylphenyl)-7,7-dimethyl-6,7-dihydro-5H-pyrrolo[2,3-b]pyrazine-2-carbonyl)-3,3-dimethylpiperazin-1-yl)-2,4-dimethylnicotinic acid]", "IC50": "< 500"}, {"smiles": "Cc1cc(N2CCN(C(=O)c3ccc4c(n3)C(C)(C)CN4C3CCC(C(N)=O)CC3)C(C)(C)C2)nc(C)c1C(=O)O", "note": "(centres unmarked) [Example 162, 6-(4-(1-(4-carbamoylcyclohexyl)-3,3-dimethyl-2,3-dihydro-1H-pyrrolo[3,2-b]pyridine-5-carbonyl)-3,3-dimethylpiperazin-1-yl)-2,4-dimethylnicotinic acid]", "IC50": "500 to 10000"}, {"smiles": "CN(c1ccc(C(=O)O)cn1)C1CCCN(C(=O)c2ccc3c(n2)C(C)(C)CN3c2ccc(Cl)c(F)c2)C1", "note": "(centres unmarked) [Example 111, 6-((1-(1-(4-chloro-3-fluorophenyl)-3,3-dimethyl-2,3-dihydro-1H-pyrrolo[3,2-b]pyridine-5-carbonyl)piperidin-3-yl)(methyl)amino)nicotinic acid hydrochloride]", "IC50": "500 to 10000"}, {"smiles": "CC1(C)CN(c2cc(F)c(F)c(F)c2)c2ncc(C(=O)N3CCN(c4ccc(CC(=O)O)cn4)CC3(C)C)nc21", "note": "[Example 217, 2-(6-(4-(7,7-dimethyl-5-(3,4,5-trifluorophenyl)-6,7-dihydro-5H-pyrrolo[2,3-b]pyrazine-2-carbonyl)-3,3-dimethylpiperazin-1-yl)pyridin-3-yl)acetic acid]", "IC50": "< 500"}]}]}
